# Reference: US10226044B2, “Agricultural and horticultural composition and method for cultivating plant” (AJINOMOTO CO., INC., priority 2014, dated 2019)
# Assays:
# [1] = system: cherry tomato (Micro-Tom); assay: Sprinkling of Ile on cherry tomato (Micro-Tom): blooming, appearance, ripening and number of fruit; type: in vivo
# Protocol: Three seeds of cherry tomato (Micro-Tom) were shown in compost contained in a slit pot (upper diameter 10.5 cm×height 8.8 cm), and cultivated in a biotron at a temperature of 23° C. with a light period of 14 hours (6:00 to 20:00) and dark period of 10 hours (20:00 to 6:00). As the compost, a mixture of Kumiai Nippi Engei Baido No. 1 (Nihon Hiryo) and vermiculite at a ratio of 3:1 (volume ratio) was used. After 3 weeks, one root clump was left, and the others were thinned out. From one month after the sowing to harvest, a 300-fold diluted solution of Hyponex liquid fertilizer (N:P:K=6:10:5, Hyponex Japan) was additionally applied as soil fertilizer by irrigation at a frequency of once a week in a volume of 100 mL per one root clump (pot). After the plants of five root clumps uniformly grew, and flower buds began to appear, water (Control, or Con) or 10 mM L-isoleucine aqueous solution (Ile) was sprinkled on the whole plants once a week. The sprinkled volume was 5 mL per one root clump. Then, the blooming, appearance of fruit, ripening of the fruit, and number of fruit produced were investigated for each root clump.
# [2] = system: cherry tomato (Suncherry Pure); type: in vivo; conditions: 10 mM sprinkled once a week
# Protocol: Three seeds of cherry tomato (Suncherry Pure, Tokita Seed) were shown in compost contained in a slit pot, and cultivated in the same manner as described in Example 1, provided that the cultivation was performed in a greenhouse as in Example 2. The compost and application of fertilizer were the same or performed in the same manner as those described in Example 1. One month after the sowing, each seedling was permanently planted in a 9.0-cm long pot (top diameter 9 cm, height 20 cm, bottom diameter 6.4 cm), and cultivated until harvest. As for application of fertilizer, a 200-fold diluted solution of Vegetable Life A (Otsuka Chemical) was additionally applied as a fertilizer by irrigation in a volume of 100 mL per one root clump (pot) every two days from one month after the sowing to the harvest. After the plants of four root clumps uniformly grew, and flower buds began to appear, water (Con.), 10 mM L-isoleucine aqueous solution (Ile), or 10 mM proline aqueous solution (Pro) was sprinkled on the whole plants once a week. The sprinkled volume was adjusted in accordance with the growth of the plants, and it was 15 to 30 mL per one root clump. Then, ripening of fruit, number of fruit, amino acid content of fruit juice, sugar content and acidity of fruit juice, and antioxidant capacity of fruit juice were investigated for each root clump.
# [3] = system: cherry tomato (Suncherry Pure); assay: Sugar content and acidity analysis of tomato fruit juice; type: in vivo; conditions: 10 mM sprinkled once a week
# Protocol: After the plants of four root clumps uniformly grew, and flower buds began to appear, water (Con.), 10 mM L-isoleucine aqueous solution (Ile), or 10 mM proline aqueous solution (Pro) was sprinkled on the whole plants once a week. The sprinkled volume was adjusted in accordance with the growth of the plants, and it was 15 to 30 mL per one root clump.
# Mature tomato fruit were taken from cherry tomato plants of each experimental group in the same manner as described in iii) above, and fruit juice was pressed out from each fruit. Glucose content, fructose content, and acidity of each fruit juice extract were analyzed. Analysis of glucose and fructose was performed for a 20-fold diluted solution of fruit juice by using a food analysis reagent kit, F-Kit (Saccharose (Sucrose)/D-Glucose/D-Fructose Kit (Roche)) and DU800 Spectrophotometer (Beckman Coulter) according to the manuals of the kit and instrument. Acidity analysis was performed by using a pocket acidity meter (PAL-AC1, ATAGO).
# [4] = system: Psy, Pds and Zds genes; assay: Real-time PCR of genes involved in carotenoid synthesis in leaves; type: in vivo, cherry tomato; conditions: 10 mM Ile, leaves 24 hours after sprinkling
# Protocol: A 10 mM isoleucine aqueous solution (Ile) or water (Con.) was sprinkled on leaf surfaces of cherry tomato plants, and RNA was isolated from the leaves 24 hours afterward. By using the isolated RNA, expression of the genes that participate in the biosynthesis of carotenoids, genes of phytoene synthase (Psy), phytoene desaturase (Pds), and ξ-carotene desaturase (Zds), were analyzed. The extraction of RNA, synthesis of cDNA, and real-time PCR analysis were conducted in the same manner as described above.
# [5] = system: LOX and Psy genes; assay: Gene expression in pepper (Anaheim) sprinkled with Ile; type: in vivo; conditions: 10 mM Ile once a week, compared to Con.
# Protocol: A 10 mM isoleucine aqueous solution (Ile) was sprinkled on pepper plants (variety, Anaheim), which also belong to the family Solanaceae, like tomato, and gene expression analysis was performed. The pepper plants were cultivated in a greenhouse in the same manner as described in Example 2. Ile was sprinkled once a week, and after the second sprinkling, leaves were collected from the pepper plants. RNA extraction, cDNA synthesis, and real-time PCR were performed in the same manner as described in Example 5 to analyze gene expression. Expression of the LOX gene was analyzed by using leaves collected 3 hours after the second sprinkling, and expression of the Psy gene was analyzed by using leaves collected 24 hours after the second sprinkling.
# [6] = system: middle size fruit-bearing tomato (Tsukutsuku-shi); assay: Ripening and harvestable bunch number of middle size fruit-bearing tomato (Tsukutsuku-shi); type: in vivo; conditions: 3 mM Ile + 0.2% Squash
# Protocol: For the test, middle size fruit-bearing tomato plants in the second half of their growth (variety, Tsukutsuku-shi) that were cultivated in a greenhouse and bore fruit of the 12th tier were used. Neighboring 12 root clumps of the tomato plants were selected, 6 root clumps of them were used for control group receiving no treatment, and the other 6 root clumps were used for the Ile treatment group. […] The total volume of the solution sprinkled on the plants of 6 root clumps was 600 ml. After the treatment, the change in color of tomatoes was confirmed and harvested from each bunch on 11th, […], and 27th days. When substantially all the fruit colored (ripened), or many fruit were ready to overmature, that is, when the top of the fruit was still green, the fruit were harvested. The numbers of bunches harvested on the 11th day after the treatment were 3 for the no treatment group, and 7 for the Ile treatment group. The numbers of bunches harvested on the 18th day after the treatment were 4 for the no treatment group, and 3 for the Ile treatment group.
# [7] = system: Phelipanche aegyptiaca; conditions: plants cultivated on an agar medium; cited from earlier work
# [8] = system: bok choy; conditions: substitution for 20% of nitrate nitrogen in nutrient solution, hydroponics; cited from earlier work
# [9] = 10 mM, once a week, compared to control
smiles,measurement,setting,value
"CC[C@H](C)[C@H](N)C(=O)O [Ile, L-isoleucine]",Blooming and appearance of the fruit,"[1]; 10 mM L-isoleucine sprinkled on whole plants once a week, 5 mL per root clump, compared to water (Con)",occurred sooner
same,Ripening of the tomatoes (fruit turned orange or red),[1]; [9],began earlier
same,number of colored tomatoes at the same time point,[1]; [9],larger
same,numbers of blooms and fruit,"[1]; 10 mM, once a week, compared to water (Con)",larger
same,"number of harvested tomatoes, larger as compared to control","[1]; 10 mM, once a week, harvest on the 82nd day after sowing",20%
same,"final crop yield: number of fruit produced, larger as compared to water (Con.)",[2],16%
same,number of tomatoes that had changed color,[2],"larger in the order of the tomato plants sprinkled with Ile, Pro, and water (Con.)"
same,"glucose content and fructose content of the fruit, comparison of groups",[3],almost the same as those of the control
same,Acidity,[3]; fruit juice of mature fruit,0.46%
same,Fructose,[3]; fruit juice of mature fruit,13.3 g/L
same,Glucose,[3]; fruit juice of mature fruit,13.3 g/L
same,expression of Pds,[4],increased
same,expression of Psy,[4],increased
same,expression of Zds,[4],increased
same,Expression of the LOX gene,[5]; leaves 3 hours after the second sprinkling,higher
same,Expression of the Psy gene,[5]; leaves 24 hours after the second sprinkling,higher
same,number of bunches harvested on the 11th day after the treatment,"[6]; 10 labeled bunches, no treatment group: 3",7
same,number of bunches harvested on the 27th day after the treatment,[6]; no treatment group: 3,1
same,number of bunches harvested on the 18th day after the treatment,[6]; no treatment group: 4,3
same,"number of immature (unripened, green) fruits among the harvested fruit of 10 bunches",[6]; no treatment group: 15 of 85,8
same,total harvested fruit of 10 bunches,[6]; no treatment group: 85,86
same,infection of Phelipanche aegyptiaca in Arabidopsis thaliana,[7],ineffective
same,growth (weight of root clump),[8],not effective
same,nitrogen and phosphorus contents of terrestrial parts (shoots),[8],increased
